Assay results as given in US20080234236A1, “REDUCTION OF ADVERSE EVENTS AFTER PERCUTANEOUS INTERVENTION BY USE OF A THROMBIN RECEPTOR ANTAGONIST” (priority 2007, published 2008).
“And” between values parts separate entries of the source, which are not always exact repeats. Equal values may be shown once. “Also recorded” adds a separate entry of the source.

Experiments:
[1] = monkey, in vivo
platelets [2] = experiment: Pharmacodynamic substudy: TRAP induced platelet aggregation (light aggregometry); assay type: in vivo, humans; settings: for Tested population achieving clinically relevant inhibition of platelet aggregation: thirty and sixty days; for Maximum inhibition of TRAP-induced platelet aggregation: 1-2 hours post dose
Method: (§1) A pharmacodynamic substudy incorporating light aggregometry was performed under stringent physiologic conditions and read by a central core laboratory. […] The term “therpeutically effective amount of a thrombin receptor antagonist” will be understood to mean that quantity of the thrombin receptor antagonist sufficient to achieve at least 80% inhibition of TRAP mediated platelet aggregation.

[3] = Bleeding time by modified Ivy method; design: species or system humans; settings: in vivo
dog Purkinje fibers = assay type: cell-based
[4] = Phase 2 study (P03573): bleeding in primary (PCI) cohort; assay type: in vivo, humans; settings: for non-TIMI bleeding: Arterial Access, patients (%) / non-TIMI bleeding: Contusion/Bruise, patients (%) / non-TIMI bleeding: Expistaxis, patients (%) / non-TIMI bleeding: GI, patients (%) / non-TIMI bleeding: Genitourinary, patients (%) / non-TIMI bleeding: Gingival, patients (%) / non-TIMI bleeding: Incidental Cuts, patients (%) / non-TIMI bleeding: Vascular Puncture, patients (%): primary PCI cohort; for Any bleed, patients (%) / TIMI Major bleeding, patients (%) / TIMI Major/Minor bleeding, patients (%) / non-TIMI bleeding (overall), patients (%) / TIMI Minor bleeding, patients (%): primary cohort (PCI), 60 days
From the text: The behavior of SCH 530348 in humans was further studied in a Phase 2 clinical development program. A key safety issue for SCH 530348 is the potential for incremental bleeding when added to standard of care with other oral antiplatelet therapies as well as parenteral antithrombotics. Therefore, a single Phase 2 study (P03573) was completed to evaluate the safety of SCH 530348 in patients at high risk of bleeding events, i.e., those patients undergoing non-emergent PCI (percutaneous coronary intervention). The goals of this Phase 2 study were to: • Evaluate the safety of SCH 530348 in addition to standard of care with respect to TIMI major and minor bleeding; and, • Observe the effects of SCH 530348 on major adverse cardiac events (“MACE”) in patients successfully completing an interventional procedure.
The primary endpoint (directed to evaluating safety) was the combined […] (“TIMI”) major and TIMI minor bleeding over sixty days in the primary evaluable cohort. Though the study was not powered to evaluate efficacy, a secondary endpoint (directed to evaluating efficacy) was the incidence of the composite of death and major adverse cardiac events (“MACE”) in the primary cohort. MACE includes myocardial infarction, urgent revascularization, and ischemia requiring hospitalization. Pharmacokinetics and pharmacodynamics were assessed at selected sites across the treatment groups. Other secondary endpoints included the incidence of TIMI major and minor bleeding in the secondary evaluable cohort i.e., those individuals who received the loading dose only.

Coagulation parameters = experiment: Coagulation parameters; design: species or system humans; settings: in vivo
From the text: (§2) Similarly, there is no effect on arachidonic acid (“AA”) -induced platelet aggregation (see FIGS. 16 and 17) or collagen-induced platelet aggregation (see FIGS. 18-21).

platelets [5] = experiment: Arachidonic acid (AA)-induced platelet aggregation; assay type: in vivo, humans; settings: loading and maintenance doses
Method: as §1, §2

[6] = Laboratory safety tests and ECGs at doses and durations studied to date; assay type: in vivo; settings: doses and treatment duration studied to date
From the text: Overall, the study drug was generally well-tolerated.

platelets [7] = experiment: Ex-vivo platelet aggregation in whole blood; design: species or system cynomolgus monkeys; settings: oral dose of 0.1 mg/kg
[8] = Monkey bleeding liability study: forearm template bleeding time; assay type: in vivo, cynomolgus monkeys; settings: for Template bleeding time: anesthetized monkeys, single oral dose (SCH 530348 1 mg/kg, ASA 10 mg/kg, clopidogrel 2 mg/kg), mean ± SEM
Method: Any novel antiplatelet agent should optimally avoid incremental bleeding risk relative to the current standard of care. The bleeding risk of SCH 530348 was evaluated in anesthetized cynomoigus monkeys in which SCH 530348 was administered alone and along with aspirin and clopidogrel. Bleeding assessment was conducted following administration of single doses of SCH 530348 (1 mg/kg) and/or aspirin (10 mg/kg, ASA) and clopidogrel (2 mg/kg). Four groups of monkeys were dosed orally with either vehicle (the medium used to dissolve the drug, 0.4% methylcellulose) or drug (n=5-6/group): Group I: vehicle, Group II: SCH 530348 (1 mg/kg), Group III ASA (10 mg/kg) plus clopidogrel (2 mg/kg) and Group IV: combination of SCH 530348, ASA plus clopidogrel. Doses of various drugs used inhibited their respective platelet pathways by >90% as assessed by ex-vivo platelet aggregation in whole blood. Two hours after dosing, animals were anesthetized and bleeding risk was assessed by forearm template bleeding time and surgical blood loss from a femoral incision site.
Template bleeding time was assessed as follows. The forearm of the monkey was shaved of hair and a precision cut (5 mm long and 1 mm deep) was made on the skin with a Simplate® bleeding device (Organon Tehnika), The duration of bleeding by blotting blood onto a filter paper at the incision site was determined. When blood was no longer absorbed onto the filter paper, bleeding was considered “stopped.” The time from initiation of the cut to when bleeding stopped is defined as the template bleeding time. In these studies bleeding time was assessed on two occasions at approximately 3.5 and 4 hrs after oral dosing with the drug.

Structure (SMILES): CCOC(=O)N[C@@H]1CC[C@@H]2[C@@H](C1)C[C@H]1C(=O)O[C@H](C)[C@H]1[C@H]2/C=C/c1ccc(-c2cccc(F)c2)cn1.O=S(=O)(O)O [SCH 530348, ethyl [(1R,3aR,4aR,6R,8aR,9S,9aS)-9-[(E)-2-[5-(3-fluorophenyl)-2-pyridinyl]ethenyl]-dodecahydro-1-methyl-3-oxonaphtho[2,3-c]furan-6-yl] carbamate bisulfate]
- QT prolongation [1]: no evidence of QT prolongation
- Tested population achieving clinically relevant inhibition of platelet aggregation (platelets [2]; 1.0 mg/day maintenance): 100%
- Tested population achieving clinically relevant inhibition of platelet aggregation (platelets [2]; 2.5 mg/day maintenance): 100%
- Maximum inhibition of TRAP-induced platelet aggregation (platelets [2]; 20 mg): > 80%
- Time to therapeutically effective levels (at least 80%) of platelet inhibition (platelets [2]; 40 mg loading dose): in as little as one hour
- Tested population with clinically relevant platelet aggregation inhibition within 2 hours (platelets [2]; 40 mg loading dose (only this dose)): more than 90%
- Patients with ≧80% inhibition of TRAP induced platelet aggregation (platelets [2]; 40 mg loading dose, 1 hour): Approximately 68%
- Patients with ≧80% inhibition of TRAP induced platelet aggregation (platelets [2]; 40 mg loading dose, 1.5 hours): ~82%
- Patients with ≧80% inhibition of TRAP induced platelet aggregation (platelets [2]; 40 mg loading dose, 2 hours): ~96%
- Maximum inhibition of TRAP-induced platelet aggregation (platelets [2]; 40 mg): > 80%
- Inhibition of platelet aggregation at thirty and sixty days (platelets [2]; all three maintenance doses (0.5, 1.0, 2.5 mg)): clinically relevant inhibition of platelet aggregation
- Inhibition of TRAP-induced platelet aggregation, dose dependency (platelets [2]; in vivo): dose-related inhibition
- Inhibition of TRAP-induced platelet aggregation (platelets [2]; multiple doses of 1 mg/day): significantly inhibited
- Inhibition of TRAP-induced platelet aggregation (platelets [2]; single doses as low as 5 mg): significantly inhibited
- Increasing bleeding time as measured by a modified Ivy method [3]: without
- QT prolongation based on action potential duration (dog Purkinje fibers): no evidence of QT prolongation
- non-TIMI bleeding: Arterial Access, patients (%) ([4]; 10 mg loading dose): 11%
- non-TIMI bleeding: Contusion/Bruise, patients (%) ([4]; 10 mg loading dose): 10%
- non-TIMI bleeding: Expistaxis, patients (%) ([4]; 10 mg loading dose): 6%
- non-TIMI bleeding: GI, patients (%) ([4]; 10 mg loading dose): 2 (2%)
- non-TIMI bleeding: Genitourinary, patients (%) ([4]; 10 mg loading dose): 3%
- non-TIMI bleeding: Gingival, patients (%) ([4]; 10 mg loading dose): 2 (2%)
- non-TIMI bleeding: Incidental Cuts, patients (%) ([4]; 10 mg loading dose): 4%
- non-TIMI bleeding: Vascular Puncture, patients (%) ([4]; 10 mg loading dose): 12%
- non-TIMI bleeding: Arterial Access, patients (%) ([4]; 20 mg loading dose): 17%
- non-TIMI bleeding: Contusion/Bruise, patients (%) ([4]; 20 mg loading dose): 17%
- non-TIMI bleeding: Expistaxis, patients (%) ([4]; 20 mg loading dose): 5%
- non-TIMI bleeding: GI, patients (%) ([4]; 20 mg loading dose): 1 (1%)
- non-TIMI bleeding: Genitourinary, patients (%) ([4]; 20 mg loading dose): 5%
- non-TIMI bleeding: Gingival, patients (%) ([4]; 20 mg loading dose): 1 (1%)
- non-TIMI bleeding: Incidental Cuts, patients (%) ([4]; 20 mg loading dose): 13%
- non-TIMI bleeding: Vascular Puncture, patients (%) ([4]; 20 mg loading dose): 18%
- non-TIMI bleeding: Arterial Access, patients (%) ([4]; 40 mg loading dose): 14%
- non-TIMI bleeding: Contusion/Bruise, patients (%) ([4]; 40 mg loading dose): 18%
- non-TIMI bleeding: Expistaxis, patients (%) ([4]; 40 mg loading dose): 5%
- non-TIMI bleeding: GI, patients (%) ([4]; 40 mg loading dose): 3%
- non-TIMI bleeding: Genitourinary, patients (%) ([4]; 40 mg loading dose): 2%
- non-TIMI bleeding: Gingival, patients (%) ([4]; 40 mg loading dose): 1%
- non-TIMI bleeding: Incidental Cuts, patients (%) ([4]; 40 mg loading dose): 10%
- non-TIMI bleeding: Vascular Puncture, patients (%) ([4]; 40 mg loading dose): 15%
- non-TIMI bleeding: Arterial Access, patients (%) ([4]; All SCH 530348): 14%
- non-TIMI bleeding: Contusion/Bruise, patients (%) ([4]; All SCH 530348): 15%
- non-TIMI bleeding: Expistaxis, patients (%) ([4]; All SCH 530348): 5%
- non-TIMI bleeding: GI, patients (%) ([4]; All SCH 530348): 2%
- non-TIMI bleeding: Genitourinary, patients (%) ([4]; All SCH 530348): 3%
- non-TIMI bleeding: Gingival, patients (%) ([4]; All SCH 530348): 1%
- non-TIMI bleeding: Incidental Cuts, patients (%) ([4]; All SCH 530348): 9%
- non-TIMI bleeding: Vascular Puncture, patients (%) ([4]; All SCH 530348): 15%
- Any bleed, patients (%) ([4]; 10 mg loading dose): 37%
- TIMI Major bleeding, patients (%) ([4]; 10 mg loading dose): 1.6%
- TIMI Major/Minor bleeding, patients (%) ([4]; 10 mg loading dose): 1.6%
- non-TIMI bleeding (overall), patients (%) ([4]; 10 mg loading dose): 36%
- Any bleed, patients (%) ([4]; 20 mg loading dose): 43%
- TIMI Major/Minor bleeding, patients (%) ([4]; 20 mg loading dose): 2.5%
- TIMI Minor bleeding, patients (%) ([4]; 20 mg loading dose): 2.5%
- non-TIMI bleeding (overall), patients (%) ([4]; 20 mg loading dose): 43%
- Any bleed, patients (%) ([4]; 40 mg loading dose): 45%
- TIMI Major bleeding, patients (%) ([4]; 40 mg loading dose): 0.6%
- TIMI Major/Minor bleeding, patients (%) ([4]; 40 mg loading dose): 4.0%
- TIMI Minor bleeding, patients (%) ([4]; 40 mg loading dose): 3.4%
- non-TIMI bleeding (overall), patients (%) ([4]; 40 mg loading dose): 42% and 43%
- Any bleed, patients (%) ([4]; All SCH 530348): 42%
- TIMI Major bleeding, patients (%) ([4]; All SCH 530348): 0.7%
- TIMI Minor bleeding, patients (%) ([4]; All SCH 530348): 2.1%
- non-TIMI bleeding (overall), patients (%) ([4]; All SCH 530348): 41% and 40%
- TIMI Major/Minor bleeding, patients (%) ([4]; All SCH 530348, primary safety endpoint): 2.8%
- Affecting coagulation parameters (Coagulation parameters): without
- Effect on arachidonic acid (AA)-induced platelet aggregation (platelets [5]): no effect
- Changes in laboratory safety tests or ECGs [6]: no significant treatment-related changes or abnormalities
- Inhibition of TRAP-driven platelet aggregation (ex-vivo) (platelets [7]): 100%
- Bleeding risk / prolongation of bleeding ([8]; SCH 530348 1 mg/kg alone or with aspirin and clopidogrel, 1 mg/kg): no bleeding risk; also recorded: no prolongation of bleeding
- Template bleeding time [8]: 4.9 min
- Template bleeding time ([8]; listed as Group II): 4.9 ± 0.99 min
